32 compounds from patent US6384220B2, “Para-aryl or heterocyclic substituted phenyl glucokinase activators” (Hoffmann-La Roche Inc., priority 2000, dated 2002) can be followed below.

Usually melting point stands for the temperature of the solid-liquid transition. For `O=C(Nc1nccs1)C(CC1CCCC1)c1ccc(-c2ccccc2)cc1` (centres unmarked) [Example 1, 2-Biphenyl-4-yl-3-cyclopentyl-N-thiazol-2-yl-propionamide], the melting point was 194 to 195 °C.
In the case of `COC(=O)c1csc(NC(=O)C(CC2CCCC2)c2ccc(-c3ccccc3)cc2)n1` (centres unmarked) [Example 2, 2-(2-Biphenyl-4-yl-3-cyclopentyl-propionylamino)-thiazole-4-carboxylic acid methyl ester] it was 98 to 101 °C; in that of `O=C(Nc1nc(CO)cs1)C(CC1CCCC1)c1ccc(-c2ccccc2)cc1` (centres unmarked) [Example 3, 2-Biphenyl-4-yl-3-cyclopentyl-N-(4-hydroxymethyl-thiazol-2-yl)-propionamide], 102 to 104 °C; in that of `O=C(Nc1nccs1)[C@H](CC1CCCC1)c1ccc(-c2ccccc2)cc1` [Example 4, (2R)-2-Biphenyl-4-yl-3-cyclopentyl-N-thiazol-2-yl-propionamide], 132 to 134 °C.
In the case of `O=C(Nc1nccs1)C(CC1CCCC1)c1ccc(-c2cccc3ccccc23)cc1` (centres unmarked) [Example 5, 3-Cyclopentyl-2-(4-naphthalen-1-yl-phenyl)-N-thiazol-2-yl-propionamide] it was 202 to 204 °C; in that of `O=C(Nc1nc(CCO)cs1)C(CC1CCCC1)c1ccc(-c2cccc3ccccc23)cc1` (centres unmarked) [Example 6, 3-Cyclopentyl-N-[4-(2-hydroxyethyl)-thiazol-2-yl]-2-(4-naphthalen-1-yl-phenyl)-propionamide], 84 to 87 °C.
Turning to `O=C(Nc1nccs1)C(CC1CCCC1)c1ccc(-c2cccs2)cc1` (centres unmarked) [Example 7, 3-Cyclopentyl-N-thiazol-2-yl-2-(4-thiophen-2-yl-phenyl)-propionamide], the melting point was 194 °C (dec.).
The compound `O=C(Nc1nccs1)C(CC1CCCC1)c1ccc(-c2cccnc2)cc1` (centres unmarked) [Example 8, 3-Cyclopentyl-2-(4-pyridin-3-yl-phenyl)-N-thiazol-2-yl-propionamide] displayed a melting point of 48 to 52 °C.
The same measure for `O=C(Nc1nccs1)C(CC1CCCC1)c1ccc(-c2ccncc2)cc1` (centres unmarked) [Example 9, 3-Cyclopentyl-2-(4-pyridin-4-yl-phenyl)-N-thiazol-2-yl-propionamide]: 213 to 215 °C; for `O=C(Nc1nccs1)C(CC1CCCC1)c1ccc(-c2ccc3[nH]ccc3c2)cc1` (centres unmarked) [Example 10, 3-Cyclopentyl-2-[4-(1H-indol-5-yl)-phenyl]-N-thiazol-2-yl-propionamide]: 112 to 115 °C.
The same measure for `O=C(Nc1nccs1)C(CC1CCCC1)c1ccc(OCc2ccccc2)cc1` (centres unmarked) [Example 11, 2-(4-Benzyloxy-phenyl)-3-cyclopentyl-N-thiazol-2-yl-propionamide]: 48 to 50 °C; for `O=C(Nc1nccs1)C(CC1CCCC1)c1ccc(Oc2ccccc2)cc1` (centres unmarked) [Example 12, 3-Cyclopentyl-2-(4-phenoxy-phenyl)-N-thiazol-2-yl-propionamide]: 154.9 to 155.1 °C; for `O=C(Nc1nc(CO)cs1)C(CC1CCCC1)c1ccc(Oc2ccccc2)cc1` (centres unmarked) [Example 13, 3-Cyclopentyl-N-(4-hydroxymethyl-thiazol-2-yl)-2-(4-phenoxy-phenyl)-propionamide]: 83.7 to 87 °C.
In the case of `O=C(Nc1nccs1)C(CC1CCCC1)c1ccc(N2CCOCC2)cc1` (centres unmarked) [Example 18, 3-Cyclopentyl-2-(4-morpholin-4-yl-phenyl)-N-thiazol-2-yl-propionamide] it was 244 to 246 °C; in that of `O=C(Nc1nccs1)C(CC1CCCC1)c1ccc(S(=O)(=O)C2CCCC2)cc1` (centres unmarked) [Example 19, 2-(4-Cyclopentanesulfonyl-phenyl)-3-cyclopentyl-N-thiazol-2-yl-propionamide], 180 to 182 °C.
`O=C(Nc1nccs1)C(CC1CCCC1)c1ccc(S(=O)(=O)c2ncc[nH]2)cc1` (centres unmarked) [Example 20, 3-Cyclopentyl-2-[4-(1H-imidazole-2-sulfonyl)-phenyl]-N-thiazol-2-yl-propionamide]: the melting point lay within 249 to 251 °C.
The same measure for `O=C(Nc1ccccn1)C(CC1CCCC1)c1ccc(-c2ccccc2)cc1` (centres unmarked) [Example 21, 2-Biphenyl-4-yl-3-cyclopentyl-N-pyridin-2-yl-propionamide]: 57 to 59 °C; for `COC(=O)c1ccc(NC(=O)C(CC2CCCC2)c2ccc(-c3ccccc3)cc2)nc1` (centres unmarked) [Example 22, 6-(2-Biphenyl-4-yl-3-cyclopentyl-propionylamino)-nicotinic acid methyl ester]: 63 to 65 °C.
The same measure for `O=C(O)c1ccc(NC(=O)C(CC2CCCC2)c2ccc(-c3ccccc3)cc2)nc1` (centres unmarked) [Example 23, 6-(2-Biphenyl-4-yl-3-cyclopentyl-propionylamino)-nicotinic acid]: 271 to 272 °C (dec.); for `O=C(Nc1ccc(CO)cn1)C(CC1CCCC1)c1ccc(-c2ccccc2)cc1` (centres unmarked) [Example 24, 2-Biphenyl-4-yl-3-cyclopentyl-N-(5-hydroxymethyl-pyridin-2-yl)-propionamide]: 67 to 70 °C; for `O=C(Nc1ccccn1)C(CC1CCCC1)c1ccc(-c2cccc3ccccc23)cc1` (centres unmarked) [Example 25, 3-Cyclopentyl-2-(4-naphthalen-1-yl-phenyl)-N-pyridin-2-yl-propionamide]: 73 to 77 °C.
With `O=C(O)c1ccc(NC(=O)C(CC2CCCC2)c2ccc(-c3cccc4ccccc34)cc2)nc1` (centres unmarked) [Example 26, 6-[3-Cyclopentyl-2-(4-naphthalen-1-yl-phenyl)-propionylamino]-nicotinic acid], the melting point was 155 to 158 °C.
The same measure for `O=C(Nc1ccc(CO)cn1)C(CC1CCCC1)c1ccc(-c2cccc3ccccc23)cc1` (centres unmarked) [Example 27, 3-Cyclopentyl-N-(5-hydroxymethyl-pyridin-2-yl)-2-(4-naphthalen-1-yl-phenyl)-propionamide]: 72 to 75 °C; for `O=C(Nc1ccccn1)C(CC1CCCC1)c1ccc(-c2cccnc2)cc1` (centres unmarked) [Example 28, 3-Cyclopentyl-N-pyridin-2-yl-2-(4-pyridin-3-yl-phenyl)-propionamide]: 139 to 140 °C; for `O=C(Nc1ccccn1)C(CC1CCCC1)c1ccc(-c2ccncc2)cc1` (centres unmarked) [Example 29, 3-Cyclopentyl-N-pyridin-2-yl-2-(4-pyridin-4-yl-phenyl)-propionamide]: 165 to 167 °C.
The same measure for `NC(=O)NC(=O)C(CC1CCCC1)c1ccc(-c2ccccc2)cc1` (centres unmarked) [Example 33, (2-Biphenyl-4-yl-3-cyclopentyl-propionyl) urea]: 184 to 185 °C; for `CNC(=O)NC(=O)C(CC1CCCC1)c1ccc(-c2ccccc2)cc1` (centres unmarked) [Example 34, 1-(2-Biphenyl-4-yl-3-cyclopentyl-propionyl)-3-methyl urea]: 195 to 197 °C; for `CNC(=O)NC(=O)C(CC1CCCC1)c1ccc(-c2cccc3ccccc23)cc1` (centres unmarked) [Example 35, 1-[3-Cyclopentyl-2-(4-naphthalen-1-yl-phenyl)-propionyl]-3-methyl urea]: 85 to 88 °C.
The same measure for `CNC(=O)NC(=O)C(CC1CCCC1)c1ccc(-c2cccnc2)cc1` (centres unmarked) [Example 36, 1-[3-Cyclopentyl-2-(4-pyridin-3-yl-phenyl)-propionyl]-3-methyl-urea]: 158 to 160 °C; for `CNC(=O)NC(=O)C(CC1CCCC1)c1ccc(-c2ccc3[nH]ccc3c2)cc1` (centres unmarked) [Example 37, 1-{3-Cyclopentyl-2-[4-(1H-indol-5-yl)-phenyl]-propionyl}-3-methyl-urea]: 91 to 95 °C.
In the case of `CNC(=O)NC(=O)C(CC1CCCC1)c1ccc(N2CCOCC2)cc1` (centres unmarked) [Example 39, 1-[3-Cyclopentyl-2-(4-morpholin-4-yl-phenyl)-propionyl]-3-methyl-urea], the melting point is 206 to 207 °C.
In the case of `CNC(=O)NC(=O)C(CC1CCCC1)c1ccc(S(=O)(=O)C2CCCCC2)cc1` (centres unmarked) [Example 40, 1-[2-(4-Cyclohexanesulfonyl-phenyl)-3-cyclopentyl-propionyl]-3-methyl-urea] it was 244 to 246 °C.
